# Laboratory results published in PubChem BioAssay (NCI).
#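 Protocol summary: plate cells (96-well), add compound at 5 concentrations, incubate 48 h, interpolate endpoints linearly. Abbreviation: GI50, concentration required for 50% inhibition of growth. TGI: concentration producing complete growth inhibition.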
# What was measured:
# Assay in all cases: NCI-60 cell line screen, 48 h
# [1] = system: SF-268 CNS
# [2] = system: SK-OV-3 ovarian
# [3] = system: SW-620 colon
# [4] = system: UO-31 renal
# [5] = system: CCRF-CEM leukemia
# [6] = system: MCF7 breast
# [7] = system: OVCAR-5 ovarian
SMILES,GI50 [1],TGI [1],GI50 [2],TGI [2],GI50 [3],TGI [3],GI50 [4],TGI [4],GI50 [5],TGI [5],GI50 [6],TGI [6],GI50 [7],TGI [7]
Oc1ccc(Cc2ccc(O)c(C3CC(c4ccc(Cl)cc4)=NN3)c2)cc1C1CC(c2ccc(Cl)cc2)=NN1 (centres undefined),3.32 µM,27.2 µM,3.61 µM,> 100 µM,3.23 µM,16 µM,3.07 µM,> 100 µM,1.94 µM,> 100 µM,3.04 µM,> 100 µM,4.45 µM,> 35.7 µM
CCN(CC)CC(O)COc1c(Br)c(Br)c(Br)c2c1OC(C)(C)C2 (centres undefined),8.35 µM,26.3 µM,16.7 µM,36.4 µM,2.26 µM,4.92 µM,5.82 µM,26.5 µM,1.96 µM,4.08 µM,1.92 µM,4.06 µM,7.68 µM,23.8 µM
CCC(C)CC(C)C(=O)c1c(O)ccn(O)c1=O (centres undefined),1.29 µM,45.3 µM,6.2 µM,> 100 µM,0.607 µM,> 100 µM,0.376 µM,4.31 µM,0.6 µM,> 100 µM,3.09 µM,> 100 µM,23.7 µM,> 100 µM
CCCOc1ccc(/C=N/Nc2cc(C)nc3ccc(Cl)cc23)cc1,2.24 µM,4.19 µM,1.78 µM,3.18 µM,1.96 µM,3.79 µM,1.56 µM,2.91 µM,1.78 µM,4.08 µM,1.67 µM,3.4 µM,1.87 µM,3.28 µM
COc1ccc(C2CC(c3ccc4ccccc4c3)=NN2c2nc(O)c(C3=c4cc(OC)ccc4=NC3=O)s2)cc1 (centres undefined),0.0615 µM,0.241 µM,0.13 µM,0.431 µM,0.0249 µM,0.0658 µM,0.202 µM,0.414 µM,0.284 µM,> 43.3 µM,0.0315 µM,0.75 µM,0.115 µM,1.35 µM
c1ccc(-c2cn(-c3ccccc3)c(-c3ccccc3)n2)cc1,14.8 µM,29.5 µM,19.3 µM,34 µM,1.95 µM,3.83 µM,11 µM,22.9 µM,2.75 µM,7.06 µM,1.59 µM,5.76 µM,19.8 µM,39.7 µM
O=C(c1cccs1)c1nc2cc(Cl)ccc2[n+]([O-])c1C(F)(F)F,> 100 µM,> 100 µM,> 100 µM,> 100 µM,> 100 µM,> 100 µM,> 100 µM,> 100 µM,> 100 µM,> 100 µM,52.2 µM,> 100 µM,> 100 µM,> 100 µM
Cn1c(NCC(CN2CCCC2)OC(=O)c2ccccc2)cc(=O)n(C)c1=O (centres undefined),> 100 µM,> 100 µM,> 100 µM,> 100 µM,> 100 µM,> 100 µM,> 100 µM,> 100 µM,0.0757 µM,4.06 µM,> 100 µM,> 100 µM,> 100 µM,> 100 µM
CCN1C(=O)N(CC)C2C1NC(=S)N2/N=C/C=C/c1ccccc1OC (centres undefined),0.0535 µM,> 100 µM,0.0368 µM,> 100 µM,0.0475 µM,> 100 µM,0.0879 µM,> 87.5 µM,0.0373 µM,> 100 µM,0.0406 µM,> 100 µM,0.0715 µM,> 100 µM
O=c1[nH]c(F)nc2c1ncn2C1OC(CO)C(O)C1O (centres undefined),> 100 µM,> 100 µM,> 100 µM,> 100 µM,> 100 µM,> 100 µM,> 100 µM,> 100 µM,> 100 µM,> 100 µM,> 100 µM,> 100 µM,> 100 µM,> 100 µM
C/C(=N\O)c1cccc(Nc2cc(-c3ccccc3)nc3c(O)cccc23)c1,4.38 µM,39.5 µM,2.62 µM,25 µM,0.751 µM,> 42.9 µM,11.2 µM,30.4 µM,2.13 µM,> 26.5 µM,0.354 µM,46.5 µM,12.5 µM,32.2 µM
O=c1[nH]c2ccccc2n2cc3ccccc3c12,21.6 µM,87.1 µM,12.4 µM,35.8 µM,3.69 µM,> 100 µM,12.6 µM,26.6 µM,5.93 µM,60.5 µM,10.5 µM,> 100 µM,10.4 µM,35.5 µM
CCCCCCc1cc2cc(-c3csc(/C=C/c4ccccc4)n3)c(=O)oc2cc1O,11.6 µM,28.9 µM,28.1 µM,80.3 µM,5.6 µM,20.7 µM,15.7 µM,> 100 µM,4.2 µM,15 µM,4.62 µM,44 µM,40.8 µM,> 100 µM
O=C1C=CC(=O)N1c1ccc(I)cc1,,> 77.5 µM,,32.5 µM,,49.3 µM,,38.5 µM,,12 µM,,45.3 µM,,47.6 µM
C/C(=N/NC(=S)N1CC2CCC(CC2)C1)c1cnccn1,,11 µM,,11.9 µM,,12.4 µM,,2.02 µM,,,,12.1 µM,,24.6 µM
N#Cc1c2ccccc2c2nnc3ccc(C(F)(F)F)cc3n12,80.7 µM,> 100 µM,89.9 µM,> 100 µM,66.7 µM,> 100 µM,85.6 µM,> 100 µM,71 µM,> 100 µM,27.6 µM,> 100 µM,,
N#C/C(=C\c1ccc(F)cc1)n1nc2cccc(F)c2n1,4.99 µM,> 100 µM,,,3.45 µM,> 100 µM,3.65 µM,> 100 µM,3.24 µM,> 100 µM,2.24 µM,> 100 µM,5.04 µM,> 100 µM
